Among the data in patent US4743585A (Warner-Lambert Company, priority 1986, dated 1988) are IC50 values, retold here.

pIC50: −log10 of the molar value. Structures can show the parent of a compound that is named as a salt.

The target in this assay is T1, renin (Homo sapiens, UniProt P00797).
T1 sequence (P00797 67-406): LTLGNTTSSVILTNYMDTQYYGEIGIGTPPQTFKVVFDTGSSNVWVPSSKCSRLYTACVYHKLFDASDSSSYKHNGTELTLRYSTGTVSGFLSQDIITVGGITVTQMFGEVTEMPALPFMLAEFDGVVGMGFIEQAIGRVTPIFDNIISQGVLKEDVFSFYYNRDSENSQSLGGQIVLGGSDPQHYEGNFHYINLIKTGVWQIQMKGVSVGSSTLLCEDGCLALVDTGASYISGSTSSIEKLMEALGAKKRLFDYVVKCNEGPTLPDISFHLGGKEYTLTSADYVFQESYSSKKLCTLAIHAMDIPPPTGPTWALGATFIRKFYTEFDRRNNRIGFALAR
In words: in vitro renin inhibitory activity, standard radioimmunoassay for angiotensin I. Type of assay: biochemical. As to the method:
The effectiveness of the aforementioned compounds is determined by a test for in vitro renin inhibitory activity. This activity is determined by a standard radioimmunoassay for angiotensin I. In this assay the enzyme, renin, incubated for two hours at 37° in the presence of a substrate, angiotensinogen, generates the product, angiotensin I. Test compounds are added to the incubation mixture.
As a reminder, the pIC50 is the negative decadic logarithm of the IC50, by convention in mol/L. Read a low pIC50 as a large IC50. `CC(C)CC(=O)N[C@H](CN[C@H](C(=O)N[C@@H](CC(C)C)[C@@H](O)CC(=O)N[C@@H](C)C(=O)N[C@@H](CC(C)C)[C@@H](O)CC(=O)NCc1ccccc1)C(C)C)C(C)C` (relative stereo) [Example 52, 5,8,11,16,19-pentaazatricosan-23-amide, 13,2-dihydroxy-2,17-dimethyl-6,9-bis(1-methylethyl)-12,20-bis(2-methylpropyl)-4,10,15,18-tetraoxo-N-(phenylmethyl)-,:6S-(6R*,9R*,12R*,13R*,17R*,20R*,21R*):-,acetate (salt) (2:3)] had a pIC50 of 4.74. The value for `CC(C)CC(NC(=O)CC(O)C(CC(C)C)NC(=O)CC(O)C(O)C(CC1CCCCC1)NC(=O)OC(C)(C)C)C(=O)NCc1ccccc1` (single isomer, unassigned) [Example 17, 15-(cyclohexylmethyl)-8,13,14-trihydroxy-4,9-bis(2-methylpropyl)-3,6,11-trioxo-1-phenyl-2,5,10,16-tetraazaheptadecan-17-oic acid, 1,1-dimethylethyl ester] was 5.19; that for `CC(C)C[C@H](NC(=O)C[C@H](O)[C@H](CC(C)C)NC(=O)C(Cc1c[nH]cn1)CC(O)[C@H](Cc1ccccc1)NC(=O)OC(C)(C)C)C(=O)NCc1ccccc1` (single isomer, unassigned) [Example 30, BOC-PHE[CHOHCH2 ]HIS-STA-LEU-NHCH2 Ph] was 4.52; that for `CC(C)CC(=O)N[C@@H](CC(C)C)C(=O)CC(Cc1ccccc1)C(=O)N[C@@H](CC(C)C)[C@@H](O)CC(=O)N[C@@H](CC(C)C)C(=O)NCc1ccccc1` (single isomer, unassigned) [Example 32] was 5.15. Regarding `CC(C)C[C@H](NC(=O)C/C=C/[C@H](Cc1ccccc1)NC(=O)OC(C)(C)C)[C@@H](O)CC(=O)N[C@@H](C)C(=O)N[C@@H](CC(C)C)[C@@H](O)CC(=O)NCc1ccccc1` [Example 1, [5S-[5R*,6R*,9R*,13R*,14R*(E),20R*]]-5,13-dihydroxy-9-methyl-6,14-bis(2-methylpropyl)-3,8,11,16-tetraoxo-1-phenyl-20-(phenylmethyl)-2,7,10,15,21-pentaazadocos-18-en-22-oic acid, 1,1-dimethylethyl ester], the pIC50 was 5.09. `CC(C)C[C@H](NC(=O)C(/C=C/[C@H](Cc1ccccc1)NC(=O)OC(C)(C)C)Cc1ccccc1)[C@@H](O)CC(=O)N[C@@H](C)C(=O)N[C@@H](CC(C)C)[C@@H](O)CC(=O)NCc1ccccc1` (some centres unmarked) [Example 2, (E)-5,13-dihydroxy-9-methyl-6,14-bis(2-methylpropyl)-3,8,11,16-tetraoxo-1-phenyl-17,20-bis(phenylmethyl)-2,7,10,15,21-pentaazadocos-18-en-22-oic acid, 1,1-dimethylethyl ester] gave a pIC50 of 4.92. Under `CC(C)C[C@H](NC(=O)C[C@H](O)[C@H](CC(C)C)NC(=O)C/C=C/[C@H](Cc1c[nH]c2ccccc12)NC(=O)OC(C)(C)C)C(=O)NCc1ccccc1` [Example 7, [4S-(4R*,8R*,9R*,13E,15R*)]-8-hydroxy-15-(1H-indol-3-ylmethyl)-4,9-bis(2-methylpropyl)-3,6,11-trioxo-1-phenyl-2,5,10-16-tetraazaheptadec-13-en-17-oic acid, 1,1-dimethylethyl ester] stands 4.70; under `CC(C)C[C@H](NC(=O)C[C@H](O)[C@H](CC1CCCCC1)NC(=O)C/C=C/[C@H](Cc1ccccc1)NC(=O)OC(C)(C)C)C(=O)NCc1cccc(CNC(=O)OCc2ccccc2)c1` [Example 8], 5.10; under `CC(C)C[C@H](NC(=O)C[C@H](O)[C@H](CC1CCCCC1)NC(=O)CC1OC1[C@H](Cc1ccccc1)NC(=O)OC(C)(C)C)C(=O)NCc1cccc(CNC(=O)OCc2ccccc2)c1` (some centres unmarked) [Example 13], 5.59. Under `CC(C)CC(NC(=O)CC(O)C(CC(C)C)NC(=O)CC(O)C(O)C(Cc1c[nH]c2ccccc12)NC(=O)OC(C)(C)C)C(=O)NCc1ccccc1` (centres unmarked) [Example 18, 8,13,14-trihydroxy-15-(1H-indol-3-ylmethyl)-4,9-bis-(2-methylpropyl)-3,6,11-trioxo-1-phenyl-2,5,10,16-tetraazaheptadecan-17-oic acid, 1,1-dimethylethyl ester] stands 5.64; under `CC(C)CC(NC(=O)CC(O)C(CC(C)C)NC(=O)/C=C/C(O)C(Cc1ccccc1)NC(=O)OC(C)(C)C)C(=O)NCc1ccccc1` (centres unmarked) [Example 19, (E)-8,14-dihydroxy-4,9-bis(2-methylpropyl)-3,6,11-trioxo-1-phenyl-15-(phenylmethyl)-2,5,10,16-tetraazaheptadec-12-en-17-oic acid, 1,1-dimethylethyl ester], 5.68; under `CC(C)C[C@H](NC(=O)C[C@H](O)[C@H](CC1CCCCC1)NC(=O)/C=C/C(O)[C@H](Cc1ccccc1)NC(=O)OC(C)(C)C)C(=O)NCc1cccc(CNC(=O)OCc2ccccc2)c1` (some centres unmarked) [Example 21], 6.33. Under `CC(C)C[C@H](NC(=O)C[C@H](O)[C@H](CC1CCCCC1)NC(=O)CCC(O)[C@H](Cc1ccccc1)NC(=O)OC(C)(C)C)C(=O)NCc1cccc(CN)c1` (some centres unmarked) [Example 24] stands 7.66. The molecule `CC(C)CC(=O)N[C@@H](Cc1ccccc1)C(=O)N[C@@H](Cc1c[nH]cn1)C(=O)N[C@@H](CC1CCCCC1)C(O)CCC(=O)NCc1ccccc1` (stereo partly drawn) [Example 27, L-histidinamide,N-(3-methyl-1-oxobutyl)-L-phenylalanyl-N-[1-(cyclohexylmethyl)-2-hydroxy-5-oxo-5-[(phenylmethyl)amino]pentyl]] had a pIC50 of 6.60.

With `CC(C)CC(=O)N[C@@H](Cc1ccccc1)C(=O)N[C@@H](Cc1c[nH]cn1)C(=O)N[C@@H](CC1CCCCC1)C(O)CCC(=O)N[C@@H](CC(C)C)C(=O)NCc1ccccc1` (some centres unmarked) [Example 28], the pIC50 is 7.85. With `CC(C)C[C@H](NC(=O)C[C@H](O)[C@H](CC1CCCCC1)NC(=O)CCC[C@H](Cc1ccccc1)NC(=O)OC(C)(C)C)C(=O)NCc1cccc(CN)c1` [Example 36], the pIC50 is 4.20. Under `CC(C)CC(=O)NC(Cc1ccccc1)CS(=O)(=O)C(Cc1ccccc1)C(=O)NC(CC(C)C)C(O)CC(=O)NC(C)C(=O)NC(CC(C)C)C(O)CC(=O)NCc1ccccc1` (centres unmarked) [Example 38, 13,21-dihydroxy-2,17-dimethyl-12,20-bis(2-methylpropyl)-4,10,15,18-tetraoxo-N,6,9-tris(phenylmethyl)-8-thia-5,11,16,19-tetraazatricosan-23-amide-8,8-dioxide] stands 5.82. `CC(C)CC(=O)NC(CSC(Cc1ccccc1)C(=O)NC(CC(C)C)C(O)CC(=O)NC(CC(C)C)C(=O)NCc1ccccc1)Cc1ccccc1` (centres unmarked) [Example 39, 6-hydroxy-17-methyl-2,7-bis(2-methylpropyl)-4,9,15-trioxo-N,10,13-tris(phenylmethyl)-11-thia-3,8,14-triazaoctadecanamide]: the pIC50 is 4.52. Under `CC(C)CC(=O)NC(Cc1ccccc1)C[S+]([O-])C(Cc1ccccc1)C(=O)NC(CC(C)C)C(O)CC(=O)NC(C)C(=O)NC(CC(C)C)C(O)CC(=O)NCc1ccccc1` (centres unmarked) [Example 40, 13,21-dihydroxy-2,17-dimethyl-12,20-bis(2-methylpropyl)-4,10,15,18-tetraoxo-N,6,9-tris(phenylmethyl)-8-thia-5,11,16,19-tetraazatricosan-23-amide-8-oxide] stands 5.70; under `CC(C)CC(NC(=O)CC(O)C(CC(C)C)NC(=O)C(Cc1ccccc1)SCC(Cc1ccccc1)NC(=O)CCCC(=O)O)C(=O)NCc1ccccc1` (centres unmarked) [Example 44, 8-hydroxy-4,9-bis(2-methylpropyl)-3,6,11,17-tetraoxo-1-phenyl-12,15-bis(phenylmethyl)-13-thia-2,5,10,16-tetraazaheneicosan-21-oic acid], 4.52. The value for `CC(C)CC(=O)NC(CCCC(=O)NC(CC(C)C)C(O)CC(=O)NC(CC(C)C)C(=O)NCc1ccccc1)Cc1ccccc1` (centres unmarked) [Example 47, N-[2-hydroxy-4-[[3-methyl-1-[[(phenylmethyl)amino]carbonyl]butyl]amino]-1-(2-methylpropyl)-4-oxobutyl]-δ-[(3-methyl-1-oxobutyl)amino]benzenehexanamide] was 4.59; that for `CC(C)CC(NC(=O)CCC(=O)C(Cc1ccccc1)NC(=O)c1ccccc1)C(O)CC(=O)NC(C)C(=O)NC(CC(C)C)C(O)CC(=O)NCc1ccccc1` (centres unmarked) [Example 48] was 4.52; that for `CC(C)C[C@H](NC(=O)CCC(=O)C(Cc1ccccc1)NC(=O)OC(C)(C)C)[C@@H](O)CC(=O)N[C@@H](C)C(=O)N[C@@H](CC(C)C)[C@@H](O)CC(=O)NCc1ccccc1` (stereo partly drawn) [Example 50, 5,13-dihydroxy-9-methyl-6,14-bis(2-methylpropyl)-3,8,11,16,19-pentaoxo-1-phenyl-20-(phenylmethyl)-2,7,10,15,21-pentaazadocosan-22-oic acid, 1,1-dimethylethyl ester; (5S,7S,13S,14S,20RS)] was 4.52. Under `CC(C)CC(CC(=O)[C@H](CC1CCCCC1)NC(=O)OC(C)(C)C)C(=O)N[C@@H](CC(C)C)[C@@H](O)CC(=O)N[C@@H](CC(C)C)C(=O)NCc1ccccc1` (some centres unmarked) [Example 51] stands 4.59. As to `CCOC(=O)C[C@H](O)[C@H](CC(C)C)NC(=O)[C@@H](NC[C@@H](NC(=O)CC(C)C)C(C)C)C(C)C` [Example 53, Heptanoic acid, 3-hydroxy-6-methyl-4-[[3-methyl-2-[[3-methyl-2-[(3-methyl-1-oxobutyl)amino]butyl]amino]-1-oxobutyl]amino]-, ethyl ester, [3S-[3R*,- 4R*[R*[R*[(R*)]]]]-], the pIC50 was 4.55. Take `CC(C)CC(=O)N[C@H](CN[C@H](C(=O)N[C@@H](CC(C)C)[C@@H](O)CC(=O)NCc1ccccc1)C(C)C)C(C)C` [Example 54, IVA-VAL[CH2 NH]VAL-STA-NHCH2 Ph]: the pIC50 is 4.52.
